The supplement of paper PMC10307832

Assays:
Experiment in all cases: relative viability (nuclei count vs DMSO), 5 days (fraction); higher = more cells survive
[1] = compound: CC1CC(=O)N(C2=CN=C(N=C2N1C3CCCC3)NC4=C(C=C(C=C4)C(=O)NC5CCN(CC5)C)OC)C [NPK76-II-72-1] + CC(C)C[C@H](NC(=O)[C@H](Cc1ccccc1)NC(=O)c1cnccn1)B(O)O [Bortezomib] (partner 0.002 µM)
In short: (§1)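 Lung cancer cell lines in 1536-well plates got either a single drug or a fixed anchor-drug dose together with five library-drug doses (not always all listed) in √10 steps, by pin tool, on the day after seeding. Nuclei were counted after 5 days, and relative viability is the treated-to-vehicle ratio of nuclei counts. Values are medians of duplicate plates.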

[2] = compound: CC1CC(=O)N(C2=CN=C(N=C2N1C3CCCC3)NC4=C(C=C(C=C4)C(=O)NC5CCN(CC5)C)OC)C [NPK76-II-72-1] + O=C(CCCCCCC(=O)Nc1ccccc1)NO [Vorinostat] (partner 1 µM)
In short: as §1

BI-2536 + Phenformin = compound: CC[C@@H]1C(=O)N(C)c2cnc(Nc3ccc(C(=O)NC4CCN(C)CC4)cc3OC)nc2N1C1CCCC1 [BI-2536] + N=C(N)NC(=N)NCCc1ccccc1 [Phenformin] (partner 250 µM)
In short: as §1

BI-2536 + AZD7762 = compound: CC[C@@H]1C(=O)N(C)c2cnc(Nc3ccc(C(=O)NC4CCN(C)CC4)cc3OC)nc2N1C1CCCC1 [BI-2536] + NC(=O)Nc1cc(-c2cccc(F)c2)sc1C(=O)N[C@H]1CCCNC1 [AZD7762] (partner 0.2 µM)
In short: as §1

Cell Line | relative viability ([1]; first compound 0.01 µM) | relative viability ([1]; first compound 0.03162 µM) | relative viability ([1]; first compound 0.1 µM) | relative viability ([1]; first compound 0.3162 µM) | relative viability ([1]; first compound 1 µM) | relative viability ([2]; first compound 0.01 µM) | relative viability ([2]; first compound 0.03162 µM) | relative viability ([2]; first compound 0.1 µM) | relative viability ([2]; first compound 0.3162 µM) | relative viability ([2]; first compound 1 µM) | relative viability (BI-2536 + Phenformin; first compound 0.01 µM) | relative viability (BI-2536 + Phenformin; first compound 0.03162 µM) | relative viability (BI-2536 + Phenformin; first compound 0.1 µM) | relative viability (BI-2536 + Phenformin; first compound 0.3162 µM) | relative viability (BI-2536 + Phenformin; first compound 1 µM) | relative viability (BI-2536 + AZD7762; first compound 0.01 µM) | relative viability (BI-2536 + AZD7762; first compound 0.03162 µM) | relative viability (BI-2536 + AZD7762; first compound 0.1 µM) | relative viability (BI-2536 + AZD7762; first compound 0.3162 µM) | relative viability (BI-2536 + AZD7762; first compound 1 µM)
A-427 | 0.935 | 0.977 | 1.06 | 0.932 | 1.02 | 0.824 | 0.856 | 0.877 | 0.855 | 0.883 | 0.35 | 0.273 | 0.151 | 0.0945 | 0.134 | 0.728 | 0.867 | 0.436 | 0.195 | 0.173
LCLC-97TM1 | 0.638 | 0.727 | 0.561 | 0.606 | 0.703 | 0.682 | 1.03 | 0.561 | 0.61 | 0.814 | 0.43 | 0.432 | 0.366 | 0.137 | 0.154 | 0.159 | 0.216 | 0.0989 | 0.0787 | 0.0721
LCLC-103H | 1.03 | 1.02 | 0.994 | 0.984 | 1.09 |  | 0.83 | 0.769 | 0.745 | 0.838 | 0.306 | 0.338 | 0.295 | 0.152 | 0.143 | 0.804 | 0.826 | 0.605 | 0.244 | 0.169
PC-3 [JPC-3] | 0.83 | 0.897 | 0.581 | 0.778 | 0.81 | 0.807 |  | 0.799 | 0.848 | 0.905 | 0.477 | 0.461 | 0.271 | 0.202 | 0.176 | 0.878 | 0.76 | 0.321 | 0.216 | 0.197
BEN | 0.773 | 0.659 | 0.763 | 0.466 | 0.875 | 0.61 | 0.711 | 0.598 | 0.591 | 0.636 | 0.262 | 0.249 | 0.207 | 0.231 | 0.186 | 0.67 | 0.711 | 0.521 | 0.419 | 0.396
NCI-H1666 | 0.9 | 0.801 | 0.73 | 0.647 | 1.03 | 1.04 | 0.996 | 0.983 | 0.955 | 1.17 | 0.564 | 0.576 | 0.435 | 0.313 | 0.341 | 0.803 | 0.851 | 0.827 | 0.411 | 0.368
LC-2-ad | 0.981 | 1.04 | 0.926 | 1.01 | 1.07 | 0.619 | 0.768 | 0.668 | 0.755 | 0.698 | 0.609 | 0.545 | 0.257 | 0.203 | 0.292 | 0.872 | 0.657 | 0.166 | 0.17 | 0.142
ChaGo-K-1 | 0.988 | 0.945 | 0.994 | 0.744 | 1.01 | 0.703 | 0.735 | 0.809 | 0.687 | 0.789 | 0.492 | 0.507 | 0.238 | 0.158 | 0.148 | 0.828 | 0.854 | 0.644 | 0.241 | 0.202
